Experimental data published in patent US20050287514A1, “Compositions and methods useful for HCV infection” (Vertex Pharmaceuticals Incorporated, priority 2003, published 2005).

Test system: HCV
Assay: Inhibition of HCV infection of cryopreserved human fetal liver cells (cell-associated HCV RNA by multiplex RT-PCR)
Format: cell-based
Conditions: VX-950 at 0.2 uM or greater; cryopreserved human fetal liver cells in HDM2; 15 hours inoculation plus additional 47 hours incubation
Method: FIG. 3 depicts the inhibition of HCV infection of cryopreserved human fetal liver cells by the HCV NS3·4a protease inhibitor VX-950 (see WO 02/18369).
Cryopreserved human fetal liver cells were thawed and allowed to adhere to wells of a collagen coated 96-well plate for 6 hours at 37° C. Non-adherent cells were removed and medium replaced with hormonally defined medium containing DMEM, BSA, nicotinamide, EGF, insulin, transferrin, and hydrocortisone (HDM2). The wells were inoculated with HCV in the presence of different concentrations of VX-950 and incubated for 15 hours at 37° C. The non-adsorbed virus was removed, the cultures washed twice with DMEM, then fresh HDM2 containing the same concentration of VX-950 was added. After incubation for an additional 47 hours, the wells were rinsed twice with PBS then the cells lysed with chaotropic buffer and RNA isolated using the Qiagen 96-well RNeasy procedure. HCV RNA was quantitated using the multiplex RT-PCR method and the mean and standard deviation of the triplicate samples at each concentration of inhibitor are presented (HCV copy number per well). […] See, FIG. 3.

**Q.** For CCC[C@H](NC(=O)C1[C@H]2CCC[C@H]2CN1C(=O)[C@@H](NC(=O)[C@@H](NC(=O)c1cnccn1)C1CCCCC1)C(C)(C)C)C(=O)C(=O)NC1CC1 (stereo partly shown) [VX-950], which “inhibition of HCV replication (HCV RNA copy number per well)” value is on record?
**A.** nearly complete inhibition of HCV replication
